Earlier results as cited in patent US20120277197A1, “TIGECYCLINE FORMULATIONS” (WYETH, priority 2008, published 2012).

Settings: cited from earlier work; for activity retained after frozen storage: after 14-23 days of frozen storage

Row | Compound | activity retained after frozen storage | further results
1 | CC(=O)OCC1=C(C(=O)O)N2C(=O)[C@@H](NC(=O)Cc3cccs3)[C@H]2SC1 [cephalothin] | retained essentially all of their activity | –
2 | penicillin | retained essentially all of their activity | –
3 | C[C@@H](O)[C@H]1C(=O)N2C(C(=O)O)=C(S[C@@H]3CN[C@H](C(=O)Nc4cccc(C(=O)O)c4)C3)[C@H](C)[C@H]12 [ertapenem] | – | stability of solutions frozen at −20° C. (frozen at −20° C.): extreme variability in stability
4 | CC1(C)S[C@@H]2[C@H](NC(=O)C(C(=O)O)c3ccccc3)C(=O)N2[C@H]1C(=O)O (some centres unmarked) [carbenicillin] | retained essentially all of their activity | –
5 | CC1(C)S[C@@H]2[C@H](NC(=O)[C@H](N)c3ccc(O)cc3)C(=O)N2[C@H]1C(=O)O [amoxycillin sodium] | – | stability on freezing solutions (in normal saline or in glucose): markedly reduced stability
